“Also recorded” adds a separate entry of the source. Where two headings read alike, the source gives them in different places. Values belong to the compound of their own block, whether it stands above or below them.
How the values were obtained:
[1] = system: human sandwich-cultured hepatocytes (SCH); experiment: Accumulation, BEI and in vitro clearance in human SCH; type: in vitro ADME
[2] = Estimated portal vein concentration of ritonavir; design: species or system human
[3] = cited from earlier work
[4] = cited from earlier work; remark: listed apart in the source
[5] = type: in vivo, human
[6] = biological target: MRP2 (Homo sapiens, UniProt Q92887); details: 50 µmol/l MK571; cited from earlier work
Sequence of MRP2 (Q92887 whole entry): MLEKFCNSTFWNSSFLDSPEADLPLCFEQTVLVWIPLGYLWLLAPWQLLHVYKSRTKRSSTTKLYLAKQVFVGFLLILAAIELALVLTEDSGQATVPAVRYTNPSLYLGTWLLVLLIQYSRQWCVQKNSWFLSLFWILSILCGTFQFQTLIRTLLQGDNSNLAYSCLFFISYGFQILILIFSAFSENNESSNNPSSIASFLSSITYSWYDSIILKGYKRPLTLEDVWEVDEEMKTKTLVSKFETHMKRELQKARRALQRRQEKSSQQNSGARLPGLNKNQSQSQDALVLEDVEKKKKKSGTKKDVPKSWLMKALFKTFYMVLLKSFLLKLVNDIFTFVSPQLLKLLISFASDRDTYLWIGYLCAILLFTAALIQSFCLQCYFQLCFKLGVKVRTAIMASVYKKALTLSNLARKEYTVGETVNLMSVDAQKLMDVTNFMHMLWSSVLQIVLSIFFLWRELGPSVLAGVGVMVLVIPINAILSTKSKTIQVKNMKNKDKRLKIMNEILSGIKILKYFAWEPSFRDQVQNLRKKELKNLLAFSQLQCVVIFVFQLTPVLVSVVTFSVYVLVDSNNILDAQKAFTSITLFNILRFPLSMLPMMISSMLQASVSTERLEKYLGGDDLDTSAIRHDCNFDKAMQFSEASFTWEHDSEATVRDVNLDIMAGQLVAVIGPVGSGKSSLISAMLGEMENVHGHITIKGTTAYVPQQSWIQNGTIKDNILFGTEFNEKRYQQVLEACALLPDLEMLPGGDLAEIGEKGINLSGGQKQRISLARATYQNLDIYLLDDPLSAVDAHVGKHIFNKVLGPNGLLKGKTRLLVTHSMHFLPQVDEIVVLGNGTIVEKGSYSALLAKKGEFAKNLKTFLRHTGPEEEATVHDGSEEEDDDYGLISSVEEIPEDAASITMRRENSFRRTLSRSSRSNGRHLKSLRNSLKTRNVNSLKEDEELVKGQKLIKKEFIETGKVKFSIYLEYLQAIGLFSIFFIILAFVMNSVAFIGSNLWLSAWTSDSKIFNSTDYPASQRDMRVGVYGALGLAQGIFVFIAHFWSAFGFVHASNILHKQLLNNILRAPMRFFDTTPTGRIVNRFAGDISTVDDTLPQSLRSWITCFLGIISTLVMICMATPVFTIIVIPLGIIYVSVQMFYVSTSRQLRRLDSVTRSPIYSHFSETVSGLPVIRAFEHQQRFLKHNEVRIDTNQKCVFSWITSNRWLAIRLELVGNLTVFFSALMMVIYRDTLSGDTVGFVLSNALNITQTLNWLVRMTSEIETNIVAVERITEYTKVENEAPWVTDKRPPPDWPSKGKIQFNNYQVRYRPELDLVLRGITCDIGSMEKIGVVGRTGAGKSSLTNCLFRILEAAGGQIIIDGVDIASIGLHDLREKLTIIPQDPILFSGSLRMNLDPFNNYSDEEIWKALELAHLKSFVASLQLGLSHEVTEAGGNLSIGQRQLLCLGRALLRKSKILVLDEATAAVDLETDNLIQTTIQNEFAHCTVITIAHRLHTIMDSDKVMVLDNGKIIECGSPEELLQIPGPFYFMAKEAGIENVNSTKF

[7] = from human SCH data, well-stirred model, mean ± SD of n=3 donors
[8] = 2 × 300 mg oral ritonavir 14 and 2 h before, mean ± SD, n = 3
[9] = ^99mTc–mebrofenin alone (control), mean ± SD, n = 8

- Total cellular accumulation of ritonavir (Ccell,total) ([1]; human SCH): up to 100 µmol/l
- Maximum estimated portal vein concentration [2]: up to 45 µmol/l
Structure (SMILES): CC(C)c1nc(CN(C)C(=O)N[C@H](C(=O)N[C@@H](Cc2ccccc2)C[C@H](O)[C@H](Cc2ccccc2)NC(=O)OCc2cncs2)C(C)C)cs1 [Ritonavir]

- CLbiliary, Predicted In Vivo Clearance [1, 7]: 4.4 ± 1.5 mL/min/kg
- CLuptake, Predicted In Vivo Clearance [1, 7]: 10.6 ± 3.1 mL/min/kg
- In vitro intrinsic CLuptake lower than semi-PBPK CLuptake,h ([1]; human SCH vs Table 2 estimate): ~ 50 fold
- CLuptake, In Vitro Intrinsic Clearance ([1]; human SCH, mean ± SD of n=3 donors): ~ 24 mL/min/kg
- AUC0–∞ (blood) [5, 8]: 4,464 ± 1,861 nCi·min/ml
- Biliary recovery [5, 8]: 72 ± 2 % Dose
- Biliary recovery ([5]; 2 h after single 200 mg oral ritonavir, mean ± SD, n = 7): 59 ± 11 % Dose
- AUC0–∞ (blood) [5, 9]: 1,970 ± 311 nCi·min/ml
- Biliary recovery [5, 9]: 75 ± 12 % Dose
- CLbiliary [5, 9]: 12.5 ± 2.5 mL/min/kg
- Urinary recovery ([5]; all groups, unaffected by ritonavir treatment): ~ 1 % of the administered dose
- Hepatic extraction ratio (CLtotal/Qh) ([5]; control subjects, mean ± SD): 0.80 ± 0.16
Structure (SMILES): Cc1cc(C)c(NC(=O)CN(CC(=O)[O-])CC(=O)[O-])c(C)c1Br.Cc1cc(C)c(NC(=O)CN(CC(=O)[O-])CC(=O)[O-])c(C)c1Br.[99Tc+4] [^99mTc–mebrofenin, ^99mTechnetium–mebrofenin]
- Hepatic elimination half-life, previous reports [3]: ~ 15 min
- Time of maximum liver concentration, reported value [3]: 11 min
- Hepatic extraction, previous reports [4]: ~ 100%
- Change in AUCblood,0-∞ (systemic exposure) ([5]; 2 × 300 mg ritonavir as compared with control): significantly greater, by approximately twofold; also recorded: twofold increase

Structure (SMILES): CN(C)C(=O)CCSC(SCCC(=O)O)c1cccc(/C=C/c2ccc3ccc(Cl)cc3n2)c1 (stereo not shown) [MK571]
- Reduction of ATP-dependent transport of ^99mTc–mebrofenin (MRP2 vesicles) [6]: 88 ± 2%
